pIC50: −log10 of the molar value.
Tests used:
[1] = system: CRF-dependent cAMP production in AtT-20 cells; test: cAMP production inhibition experiment using AtT-20 cells; type: cell-based; conditions: Mus musculus, AtT20, 30 nM CRF, intracellular cAMP by HTRF, read-out: Adenylate cyclase activity IC50
Description: <cAMP Production Inhibition Experiment Using AtT-20 Cells>
The AtT-20 cells were of a mouse pituitary gland tumor-derived cell line which is known to respond to Corticotropin-Releasing Factor (CRF), leading to activation of the intracellular adenylate cyclase system, production of cyclic AMP (cAMP), and release of adenocorticotropic hormone (ACTH) (Biochem. Biophys. Res. Com. 106, 1364-1371, 1982). For the experiment, the cells (1×10^5) were suspended in D-MEM medium (0.1% FBS) and seeded in a 96-well plate, phosphodiesterase inhibitor (IBMX, Calbiochem) was added to a final concentration of 1 mM, and were cultured at 37° C. for 30 minutes. A dilution of the test compound was added, culturing was continued for 30 minutes at 37° C., and CRF (30 nM) was added and culturing was continued for 30 minutes at 37° C. The cells were collected by centrifugation (500×g, 5 minutes) and lysed with lysis buffer (0.2% dodecyltrimethylammonium bromide), and the intracellular cAMP production was quantified by the HTRF method. A cAMP kit HTRF (CIS Diagnostics Co., Ltd.) was used for the cAMP quantification.
(2) Calculation of cAMP Production Inhibition
The cAMP production of cells to which 30 nM CRF had been added was defined as 100% (control), and the value for each specimen was represented as a percentage (% of control).

human CRFR1 = molecular target: T1, human CRFR1 (Homo sapiens, UniProt P34998); test: CRFR binding experiment (125I-sauvagine SPA, membrane fraction of CRFR1-expressing HEK293 cells); conditions: 125I-sauvagine displacement, read-out: CRF1 receptor binding affinity IC50
T1 construct: The full-length CRFR1 gene was obtained from a human brain cDNA library (QuickClone™, Clontech) by PCR; expressed in transfected cells
T1 sequence (P34998 24-415): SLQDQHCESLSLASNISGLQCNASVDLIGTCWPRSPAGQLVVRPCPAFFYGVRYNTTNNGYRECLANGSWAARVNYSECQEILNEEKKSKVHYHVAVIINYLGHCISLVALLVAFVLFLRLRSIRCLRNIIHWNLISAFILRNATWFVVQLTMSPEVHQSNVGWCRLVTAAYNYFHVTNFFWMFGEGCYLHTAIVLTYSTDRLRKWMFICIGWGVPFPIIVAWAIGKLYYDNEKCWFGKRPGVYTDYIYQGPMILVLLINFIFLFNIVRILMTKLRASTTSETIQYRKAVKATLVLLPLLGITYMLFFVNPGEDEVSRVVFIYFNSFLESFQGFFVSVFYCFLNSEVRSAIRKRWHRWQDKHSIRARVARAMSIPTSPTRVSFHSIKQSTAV
Method: <CRFR Binding Experiment>
(1) Preparation of CRFR-Expressing Cells
Membrane fraction of the cell highly expressing human CRFR1 was used as the experimental material for a CRFR binding experiment. The CRFR expressing cells were prepared in the following manner. The full-length CRFR1 gene was obtained from a human brain cDNA library (QuickClone™, Clontech) by PCR. The obtained DNA fragments were inserted into cloning vectors and the base sequences were determined. cDNA having the correct base sequence was then relinked to an expression vector (pcDNA3.1™, Invitrogen). The CRFR1 expression vector was introduced into HEK293 cells, and the resistant cells which grew in cell medium containing G418 (1 mg/ml) were cloned by limiting dilution. From these cloned cells, the clones with high binding affinity between the membrane fraction and sauvagine per unit of protein in the binding experiment described below were selected out and used for the final experiment.
(2) Preparation of Membrane Fraction
The cloned cells obtained in (1) were collected and disrupted with an ultrasonic generator in sonicate buffer (D-PBS(−) 10 mM MgCl2, 2 mM EGTA). The suspension obtained from ultrasonic disruption was centrifuged (46,000×g, 10 minutes), and the precipitate was resuspended in sonicate buffer and the same procedure was repeated. The final precipitate was then suspended in binding buffer (D-PBS(−) 10 mM MgCl2, 2 mM EGTA, 1.5% BSA, 0.15 mM bacitracin, 1× protease inhibitor cocktail (COMPLETE™, Boehringer)), and used as the membrane fraction after adjusting the protein concentration to 1.6 mg/ml.
The sauvagine binding experiment was conducted following the protocol of SPA™ (Amersham Pharmacia), using a 96-well plate. The experiment was conducted according to the SPA beads instruction manual. After allowing […] of the membrane fraction protein, 0.5 mg of SPA beads and […] of ^125I-sauvagine (Amersham Pharmacia) to stand at room temperature for 2 hours in the presence of the test compound, the mixture was centrifuged (1000×g, 5 minutes) and the radioactivity of each well was measured with a TopCount™ (Packard).
(4) Calculation of Binding Affinity
The radioactivity for non-radioactive sauvagine added in a 1000-fold excess was subtracted from each value as the non-specific binding, and the radioactivity of a sample without addition of the test substance (control) was defined as 100%, with each value represented as a percentage (% of control).

| pIC50 [1] | pIC50 (human CRFR1) | SMILES |
| --- | --- | --- |
| 6.89 | – | CCCN(CCC)c1c(CC)nn2c(-c3ccc(OC)cc3Cl)cccc12 [Example 3, N-[7-(2-Chloro-4-methoxyphenyl)-2-ethylpyrazolo[1,5-a]pyridin-3-yl]-N,N-dipropylamine] |
| 6.70 | 6.80 | CCCN(CCC)c1c(CC)nn2c(-c3ccc(OC)cc3OC)cccc12 [Example 6, N-[7-(2,4-Dimethoxyphenyl)-2-ethylpyrazolo[1,5-a]pyridin-3-yl]-N,N-dipropylamine] |
| 6.26 | 6.68 | CCCN(CCOC)c1c(CC)nn2c(-c3ccc(Cl)cc3Cl)cccc12 [Example 25, N-[7-(2,4-Dichlorophenyl)-2-ethylpyrazolo[1,5-a]pyridin-3-yl]-N-(2-methoxyethyl)-N-propylamine] |
| 6.52 | 7.26 | CCc1nn2c(-c3ccc(Cl)cc3Cl)cccc2c1N(CCOC)CC(C)C [Example 27, N-[7-(2,4-Dichlorophenyl)-2-ethylpyrazolo[1,5-a]pyridin-3-yl]-N-isobutyl-N-(2-methoxyethyl)amine] |
| 6.40 | 7.05 | CCCN(CCC)c1c(SC)nn2c(-c3ccc(Cl)cc3Cl)cccc12 [Example 103, N-[7-(2,4-Dichlorophenyl)-2-methylthiopyrazolo[1,5-a]pyridin-3-yl]-N,N-dipropylamine] |
| 7.70 | 7.30 | COCCN(CC(C)C)c1c(SC)nn2c(-c3c(C)cc(C)cc3OC)cccc12 [Example 108, N-Isobutyl-N-[7-(2-methoxy-4,6-dimethylphenyl)-2-(methylsulfanyl)pyrazolo[1,5-a]pyridin-3-yl]-N-(2-methoxyethyl)amine] |
